{"source": "patent US20140309295A1", "about": "“ANTIEPILEPTIC, HYPOCHOLESTEROLEMIC AND NEUROPROTECTIVE COMPOUND” (NEURON BIOPHARMA, S.A., priority 2009, published 2014)", "key": {"[1]": {"tested_on": "CD1 mice inoculated with MPTP (subchronic)", "assay": "Subchronic MPTP model of Parkinson's disease in mice", "assay_type": "in vivo", "procedure": "(§1) All the animals included for the experimental process were 12-week old males of the CD1 strain. The experiments were conducted strictly following the Guidance on the Operation of Animals (Scientific Procedures, Act. 1986). The animals had their respective quarantine period and were treated with maximum precaution to minimize possible contaminations during inoculations and handling.\nTwenty animals were used in this assay and the treatments were all conducted by intraperitoneal (i.p.) route with a volume of 100 μl, according to the following regimens: • i) PBS+MPTP+PBS regimen: 10 animals were initially treated with a daily dose for 2 days of PBS, from the second day onwards the animals were inoculated with 1 daily dose of MPTP at 30 mg/Kg for 5 days, at intervals of 2 hours by i.p. route. For the next 21 days they were administered 3 weekly doses of PBS. • ii) NST0037+MPTP+NST0037 regimen: 10 animals were initially treated with a daily dose for 2 days of NST0037 at 50 mg/kg, from the second day onwards the animals were inoculated with 1 daily dose of MPTP at 30 mg/Kg for 5 days, at intervals of 2 hours by i.p. route. For the next 21 days they were administered 3 weekly doses of NST0037 at 50 mg/kg.\nSeven days before starting the treatments and at 7, 14 and 21 days post-inoculation of MPTP, the animals were subjected to a locomotor resistance test referred to as the Rotarod test for 2 minutes, recording the time the animals resisted walking over a cylinder which increased its speed from 4 to 40 r.p.m.\nOnce the treatment time of 21 days ended, the animals were sacrificed and the brains were dissected. The brain samples were processed and included in paraffin. For the analysis of the presence of dopaminergic neurons in the substantia nigra, the immunohistochemistry against the tyrosine-hydroxylase (TH) protein was performed in 5 μm thick sagittal sections.\nOnce the treatment time of 21 days ended, the animals were sacrificed and the brains were dissected. The brain samples were processed and included in paraffin. […]"}, "Zucker rats": {"tested_on": "Zucker rats", "assay": "Hypolipidemic effect in genetically obese Zucker rats, oral 7 days", "assay_type": "in vivo", "settings": "30 mg/kg oral", "procedure": "as §1, with “11 week-old male Zucker rats.” for “12-week old males of the CD1 strain.”, “for” for “during”\nAfter a conditioning to the diet, 30 mg/kg of NST0021 or NST0037 were orally administered to the […] at the same time (15.00 to 18.00 h) for 7 consecutive days, using in both cases 0.5% carboxy methylcellulose in water as a vehicle. The control group received this same vehicle. Before starting the treatments and at 7 days therefrom, blood was extracted by lingual puncture under anesthesia after fasting for 16 hours. The plasma was obtained from said blood, in which the total cholesterol, HDL-c, LDL-c, VLDL-c, and triglyceride (TG) levels were evaluated by enzymatic and spectrophotometric techniques. In order to check if the effect at the lipid level involved an alteration of the oxidative stress, the redox state in the plasmas obtained was furthermore evaluated by means of the TEAC (Trolox Antioxidant Capacity Assay) technique. This technique determines the antioxidant capacity in vitro, giving an idea of the redox state of the sample analyzed by means of the absorbance capacity by electron transfer. The different components of the reaction, myoglobin, ABTS (2,2-azino-bis-(3-ethylbenzthiazoline-sulfonic acid) and hydrogen peroxide were added to the plasmas diluted 1/10 in PBS (10 μL) in a 96-well plate. After 3 minutes of incubation, the absorbance was measured at 405 nm (with a reference of 600 nm)."}, "zebrafish larvae": {"tested_on": "zebrafish larvae", "assay": "Acute toxicity assay in zebrafish larvae (24 hours)", "assay_type": "in vivo, Danio rerio", "settings": "for Mortality (dead larvae/total): 1 day", "procedure": "To evaluate the biosafety of compound NST0037, its toxicological effects on the zebrafish larvae model were analyzed by means of determining the safety parameters of the OECD C15 protocol.\nThe fertilized eggs were obtained by natural mating of the zebrafish (Danio rerio, AB strain). A total of 8-10 pairs were used for each cross and a total of 200-250 eggs were generated on average per pair. The eggs were collected immediately after spawning and were washed with dilution water (CaCl2.2H2O2 0.29 g/L, MgSO4.7H2O2 0.12 g/L, NaHCO3 0.065 g/L, KCl 0.006 g/L), the pH being adjusted to 7.8±0.2, in accordance with EC Regulation 440/2008, method C.1, and were deposited in a Petri dish.\nThe embryos were developed normally until 96 hours post-fertilization in their growth medium. […] […]. Each experiment was performed in triplicate.\nThe studies were conducted for 24 hours of treatment, thus performing an acute toxicity assay. […].\nAfter the time of exposure of the substances under study, the record of the mortality of the larvae was determined. […].\n[…]. The percentage of healthy larvae was defined as the number of live larvae without symptoms of external physiopathological anomalies (morphological and/or behavioral), the latter being a parameter determining the biosafety of a substance under study and is complementary to the survival rates and to LD50. […].\nThe anomalies recorded in the study are described below: • Thrombosis in the yolk sac: it is a clot inside a blood vessel, in this case of any vessel irrigating the yolk. • Cardiac thrombosis: occurs in a cardiac vessel. • Cardiac edema (or hydrops): accumulation of fluid in the intercellular tissue space and also in the cavities of the organism. In the case of the heart, it causes the accumulation of fluid in the pericardial sac."}}, "data": [{"smiles": "CCC(CC)C(=O)O[C@H]1C[C@@H](C)C=C2C=C[C@H](C)[C@H](CC[C@@H]3C[C@@H](O)CC(=O)O3)[C@H]21", "note": "[NST0037, (1S,2S,6R,8S,8aR)-1,2,6,7,8,8a-hexahydro-3,7-dimethyl-8-[2-[(2R,4R)-tetrahydro-4-hydroxy-6-oxo-2H-pyran-2-yl]ethyl]-1-naphthalenyl-2-ethyl-butyrate]", "values": [{"measurement": "motor resistance (Rotarod test)", "setting": "[1]; NST0037+MPTP+NST0037, 50 mg/kg i.p., MPTP 30 mg/Kg daily 5 days, up to 21 days", "value": "prevents the motor deterioration of the animals"}, {"measurement": "dopaminergic neurons (tyrosine-hydroxylase) in substantia nigra", "setting": "[1]; NST0037+MPTP+NST0037, 21 days", "value": "larger number of TH-positive cells"}, {"measurement": "lipid peroxidation (HNE) in neurons of substantia nigra", "setting": "[1]; NST0037+MPTP+NST0037, 21 days", "value": "modest number of isolated neurons with HNE-positive labeling"}, {"measurement": "HDL", "setting": "Zucker rats", "value": "increase of HDL"}, {"measurement": "oxidative stress (redox state in plasma, TEAC)", "setting": "Zucker rats", "value": "drastic reduction"}, {"measurement": "plasma triglyceride levels", "setting": "Zucker rats", "value": "reduced the plasma triglyceride levels"}, {"measurement": "plasma LDL levels", "setting": "Zucker rats; male Zucker rats", "value": "equally reducing the plasma LDL levels"}, {"measurement": "Mortality (dead larvae/total)", "setting": "zebrafish larvae; Dose 10 mg/Kg", "value": "0/30"}, {"measurement": "Mortality (dead larvae/total)", "setting": "zebrafish larvae; Dose 30 mg/Kg", "value": "0/30"}, {"measurement": "Mortality (dead larvae/total)", "setting": "zebrafish larvae; Dose 100 mg/Kg", "value": "0/30"}, {"measurement": "Mortality (dead larvae/total)", "setting": "zebrafish larvae; Dose 300 mg/Kg", "value": "0/30"}, {"measurement": "Mortality (dead larvae/total)", "setting": "zebrafish larvae; Dose 1000 mg/Kg", "value": "0/30"}, {"measurement": "percentage of healthy larvae", "setting": "zebrafish larvae; highest study dose (1000 mg/Kg), 24 hours", "value": "67.9±3.3", "unit": "%"}]}]}
